According to patent US6794386B2, “β-amino acid compounds as integrin antagonists” (Bayer Aktiengesellschaft, priority 2000, dated 2004):

These compounds were tested against T1, VLA-4 (Homo sapiens, UniProt P05556+P13612) (assay: Adhesion of Jurkat cells to immobilized VCAM-1 (domains 1-3)). Details: adhesion of CFSE-labeled Jurkat cells to recombinant human VCAM-1 (domains 1-3) coated plates; compounds as yielded by solid phase synthesis, purity about 40-90%.
T1 construct: host or cells: Jurkat clone E6-1
Type: cell-based
Parameters: scale not given here
Experimental: In Vitro Assay: Adhesion of Jurkat Cells to Immobilized VCAM-1 (Domains 1-3).
Preparation of Fluorescence Labeled Jurkat Cells:
Jurkat cells (American Type Culture Collection, Clone E6-1, ATCC TIB-152) were cultured in RPMI 1640 medium (Nikken Bio Medical Laboratory, CM1101) supplemented with 10% fetal bovine serum (Hyclone, A-1119-L), 100 U/ml penicilin (Gibco BRL, 15140-122) and 100 μg/ml streptomycin (Gibco BRL, 15140-122) in a humidified incubator at 37° C. with 5% CO2.
Jurkat cells were incubated with phosphate balanced solution (PBS, Nissui, 05913) containing 25 μM of 5(-and-6)-carboxyfluorescein diacetate, succinimidyle ester (CFSE, Dojindo Laboratories, 345-06441) for 20 min at room temperature while gently swirling every 5 min. After centrifugation at 1000 rpm for 5 min, the cell pellet was resuspended with adhesion assay buffer at a cell density of 2×10^6 cells/ml. The adhesion assay buffer was composed of 24 mM Tris-HCl (pH 7.4), 137 mM NaCl, 27 mM KCl, 4 mM glucose, 0.1% bovine serum albumin (BSA, Sigma, A9647) and 2 mM MnCl2.
Preparation of VCAM-1 (Extracellular Domains 1-3):
Complementary DNA (cDNA) encoding 7-domain form of VCAM-1 (GenBank accession #M60335) was obtained using Rapid-Screen™ cDNA library panels (OriGene Technologies, Inc) at Takara Gene Analysis Center (Shiga, Japan). The primers used were 5′-CCAAGGCAGAGTACGCAAAC-3′ (sence) and 5′-TGGCAGGTATTATTAAGGAG-3′ (antisense). PCR amplification of the 3-domain VCAM-1 cDNA was perform using Pfu DNA polymerase (Stratagene) with the following sets of primers: (U-VCAMd1-3) 5′-CCATATGGTACCTGATCAATTTAAAATCGAGACCACCCCAGAA-3′; (L-VCAMd1-3) 5′-CCATATAGCAATCCTAGGTCCAGGGGAGATCTCAACAGTAAA-3′. PCR cycle was 94° C. for 45 sec, 55° C. for 45 sec, 72° C. for 2 min, repeating 15 cycles. After the purification of the PCR product, the fragment was digested with KpnI-AvrII. The digested fragment was ligated into pBluescript IISK(−) (Strategene), which was linealized by digesting with KpnI-XhoI. The ligation was followed by transformation to a Dam/Dcm methylase-free E. coli strain SCS110 (Strategene) to create the donor plasmid pH7. To direct VCAM-1 molecule into the insect cell secretory pathway, the VCAM-1 coding sequence was fused to signal peptide sequence of honeybee melittin. The resulting melittin-VCAM fusion was placed in correct orientation to the baculoviris polyhedrin promoter. Baculovirus transfer vector containing first 3-domain form VCAM-1 (pH10) was constructed by ligation of 0.9 kb fragment from AvrII/Klenow/BclI digests of pH7 into SalI/Klenow/BamHI digests of pMelBacB (Invitrogen). Recombinant baculovirus was generated by using Bac-N-Blue™ Transfection kit (Invitrogen) according to the manufacture's instruction. The recombinant virus was amplified by infection to High-Five™ insect cells for 5-6 days, and virus titer was determined by plaque assay.
High-Five™ insect cells were pelleted in a 225 ml conical tube by centrifugation at 1000 rpm for 5 min After discarding the supernatant, the pellet was resuspended in 1.5×10^9 pfu (MOI=5) of high-titer virus solution, followed by incubation for 1.5 hours at room temperature. The cells were pelleted again and washed once in fresh Express Five™ serum free medium. The cells were pelleted again and finally, resuspended in 200 ml of fresh Express Five™ medium, transferred to a 1,000 ml shaker flask, and incubated in a shaker at 27° C., 130 rpm, for 48 hours before the culture supernatant was collected. The purification of 3-domain form of VCAM-1 from the culture supernatant was performed by one-step anion exchange chromatography. Protein concentration was determined by using Coomassie protein assay reagent (Pierce) according to the manufacture's instruction.
Preparation of Microtiter Plates:
Recombinant human VCAM-1 (extracellular domains 1-3) was dissolved at 0.5 μg/ml in PBS. […]

T1 sequence (P13612 34-1032): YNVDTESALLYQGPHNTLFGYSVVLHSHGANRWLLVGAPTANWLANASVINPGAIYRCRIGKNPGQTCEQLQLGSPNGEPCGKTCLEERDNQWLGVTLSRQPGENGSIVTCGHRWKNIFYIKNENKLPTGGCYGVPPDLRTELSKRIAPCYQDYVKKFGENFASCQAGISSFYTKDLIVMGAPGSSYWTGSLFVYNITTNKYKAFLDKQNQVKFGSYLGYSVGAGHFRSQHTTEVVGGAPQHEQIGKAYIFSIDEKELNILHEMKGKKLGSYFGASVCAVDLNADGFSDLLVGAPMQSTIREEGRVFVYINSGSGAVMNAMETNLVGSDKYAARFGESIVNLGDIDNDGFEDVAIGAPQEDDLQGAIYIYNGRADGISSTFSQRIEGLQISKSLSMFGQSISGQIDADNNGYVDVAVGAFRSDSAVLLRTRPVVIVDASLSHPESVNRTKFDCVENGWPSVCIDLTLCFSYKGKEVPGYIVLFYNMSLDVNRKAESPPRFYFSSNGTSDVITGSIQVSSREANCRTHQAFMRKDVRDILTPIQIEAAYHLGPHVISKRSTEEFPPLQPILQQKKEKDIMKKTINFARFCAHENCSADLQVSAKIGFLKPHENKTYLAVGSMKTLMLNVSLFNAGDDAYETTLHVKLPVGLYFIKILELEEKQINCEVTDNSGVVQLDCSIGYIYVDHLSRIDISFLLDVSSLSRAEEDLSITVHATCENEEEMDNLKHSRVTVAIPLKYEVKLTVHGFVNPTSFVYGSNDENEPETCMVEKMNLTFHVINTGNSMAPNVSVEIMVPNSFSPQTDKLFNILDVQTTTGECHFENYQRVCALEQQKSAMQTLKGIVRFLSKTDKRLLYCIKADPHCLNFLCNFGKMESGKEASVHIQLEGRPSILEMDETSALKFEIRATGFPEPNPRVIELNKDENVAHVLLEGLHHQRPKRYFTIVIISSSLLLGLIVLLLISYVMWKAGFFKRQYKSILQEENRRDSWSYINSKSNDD
T1 sequence (P05556 21-798): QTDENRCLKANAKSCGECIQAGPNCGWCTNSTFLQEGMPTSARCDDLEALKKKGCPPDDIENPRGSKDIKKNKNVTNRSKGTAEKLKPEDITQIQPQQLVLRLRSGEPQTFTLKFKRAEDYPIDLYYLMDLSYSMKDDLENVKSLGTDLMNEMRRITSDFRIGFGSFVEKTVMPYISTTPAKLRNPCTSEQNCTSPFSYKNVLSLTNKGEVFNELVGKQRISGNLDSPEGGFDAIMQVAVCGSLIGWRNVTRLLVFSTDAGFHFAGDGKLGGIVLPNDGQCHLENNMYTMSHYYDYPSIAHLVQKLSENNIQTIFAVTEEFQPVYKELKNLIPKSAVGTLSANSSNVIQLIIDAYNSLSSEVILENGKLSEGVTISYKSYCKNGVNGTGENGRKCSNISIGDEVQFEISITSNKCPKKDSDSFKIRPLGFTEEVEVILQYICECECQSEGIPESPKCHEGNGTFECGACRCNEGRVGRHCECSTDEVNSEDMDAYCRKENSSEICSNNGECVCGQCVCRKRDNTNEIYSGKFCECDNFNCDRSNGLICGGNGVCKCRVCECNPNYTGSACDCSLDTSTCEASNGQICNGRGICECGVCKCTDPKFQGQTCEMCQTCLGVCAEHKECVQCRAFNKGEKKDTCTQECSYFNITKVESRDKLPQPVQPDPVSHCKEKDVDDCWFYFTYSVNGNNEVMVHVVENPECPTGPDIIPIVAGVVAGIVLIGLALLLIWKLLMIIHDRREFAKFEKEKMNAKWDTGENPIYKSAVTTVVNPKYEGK

IC50	SMILES
C-D	COc1ccc(-c2ccc(C[C@H](NC(=O)C3CCCN(c4ncnc(NC5Cc6ccccc6C5)c4F)C3)C(=O)O)cc2)cc1 (some centres unmarked) [Example 2.21]
C-D	Cc1cc(C)c(OC(=O)N2CCCC(C(=O)N[C@@H](Cc3ccc(-c4ccc(Cl)cc4Cl)cc3)C(=O)O)C2)c(C)c1 (some centres unmarked) [Example 1.47]
C-D	O=C(N[C@@H](Cc1ccc(-c2cc(Cl)ccc2Cl)cc1)C(=O)O)C1CCCN(S(=O)(=O)c2cc(Cl)cc(Cl)c2)C1 (some centres unmarked) [Example 1.111]
C-D	O=C(N[C@@H](Cc1ccc(-c2ccc(Cl)cc2Cl)cc1)C(=O)O)C1CCCN(S(=O)(=O)c2ccc3ccccc3c2)C1 (some centres unmarked) [Example 1.96]
C-D	COc1ccc(-c2ccc(C[C@H](NC(=O)C3CCCN(c4ncnc(NCc5ccccn5)c4F)C3)C(=O)O)cc2)cc1 (some centres unmarked) [Example 2.14]
C-D	Cc1ccc(-c2ccc(C[C@H](NC(=O)C3CCCN(C(=O)Cc4c(Cl)cc(Cl)cc4Cl)C3)C(=O)O)cc2)cc1 (some centres unmarked) [Example 1.22]
C-D	CCCCN(C)c1ncnc(N2CCCC(C(=O)N[C@@H](Cc3ccc(-c4ccc(OC)cc4)cc3)C(=O)O)C2)c1F (some centres unmarked) [Example 2.23]
C-D	COC(=O)c1ccccc1S(=O)(=O)N1CCCC(C(=O)N[C@@H](Cc2ccc(-c3ccccc3)cc2)C(=O)O)C1 (some centres unmarked) [Example 1.57]
C-D	O=C(N[C@@H](Cc1ccc(-c2cc(Cl)ccc2Cl)cc1)C(=O)O)C1CCCN(S(=O)(=O)c2ccccc2C(F)(F)F)C1 (some centres unmarked) [Example 1.109]
C-D	Cc1ccc(-c2ccc(C[C@H](NC(=O)C3CCCN(S(=O)(=O)c4ccc(C)cc4)C3)C(=O)O)cc2)cc1 (some centres unmarked) [Example 1.66]
C-D	O=C(N[C@@H](Cc1ccc(-c2ccc(Cl)cc2Cl)cc1)C(=O)O)C1CCCN(C(=O)c2cccc(Cl)c2)C1 (some centres unmarked) [Example 1.41]
C-D	COC(=O)c1ccccc1S(=O)(=O)N1CCCC(C(=O)N[C@@H](Cc2ccc(-c3ccc(C)cc3)cc2)C(=O)O)C1 (some centres unmarked) [Example 1.67]
C-D	Cc1ccccc1-c1ccc(C[C@H](NC(=O)C2CCCN(c3ncnc(NCc4ccccn4)c3F)C2)C(=O)O)cc1 (some centres unmarked) [Example 2.24]
C-D	COc1ccc(-c2ccc(C[C@H](NC(=O)C3CCCN(C(=O)Oc4c(C)cc(C)cc4C)C3)C(=O)O)cc2)cc1 (some centres unmarked) [Example 1.28]
C-D	Cc1cc(Cl)c(CC(=O)N2CCCC(C(=O)N[C@@H](Cc3ccc(-c4ccccc4C)cc3)C(=O)O)C2)c(Cl)c1 (some centres unmarked) [Example 1.35]
C-D	Cc1ccc(-c2ccc(C[C@H](NC(=O)C3CCCN(S(=O)(=O)c4cc(Cl)cc(Cl)c4)C3)C(=O)O)cc2)cc1 (some centres unmarked) [Example 1.74]
C-D	CC1(C)C2CCC1(CS(=O)(=O)N1CCCC(C(=O)N[C@@H](Cc3ccc(-c4ccccc4)cc3)C(=O)O)C1)C(=O)C2 (some centres unmarked) [Example 1.55]
C-D	O=C(N[C@@H](Cc1ccc(-c2ccc(Cl)cc2Cl)cc1)C(=O)O)C1CCCN(S(=O)(=O)c2ccccc2C(F)(F)F)C1 (some centres unmarked) [Example 1.99]
C-D	COc1ccc(-c2ccc(C[C@H](NC(=O)C3CCCN(c4ncnc(NC5CCCCC5)c4F)C3)C(=O)O)cc2)cc1 (some centres unmarked) [Example 2.15]
C-D	Cc1cc(Cl)c(CC(=O)N2CCCC(C(=O)N[C@@H](Cc3ccc(-c4ccccc4)cc3)C(=O)O)C2)c(Cl)c1 (some centres unmarked) [Example 1.12]
C-D	CCCCN(C)c1ncnc(N2CCCC(C(=O)N[C@@H](Cc3ccc(-c4ccccc4C)cc3)C(=O)O)C2)c1F (some centres unmarked) [Example 2.33]

Same assay, conditions: adhesion of CFSE-labeled Jurkat cells to recombinant human VCAM-1 (domains 1-3) coated plates; compounds as yielded by solid phase synthesis, purity about 40-90%; read-out: IC50

IC50 [µM]	SMILES
≤ 0.5	COc1ccccc1C(=O)N1CCCC(C(=O)N[C@@H](Cc2ccc(-c3cc(Cl)ccc3Cl)cc2)C(=O)O)C1 (stereo partly drawn) [Example 1.1, (2S)-3-(2′,5′-dichloro[1,1′-biphenyl]-4-yl)-2-({[1-(2-methoxybenzoyl)-3-piperidinyl]carbonyl}amino)propanoic acid]
≤ 0.5	Cc1ccc(S(=O)(=O)N2CCCC(C(=O)N[C@@H](Cc3ccc(NC(=O)N4CCN(c5ccccc5)CC4)cc3)C(=O)O)C2)cc1 (some centres unmarked) [Example 4.46]
2 to 10	O=C(N[C@@H](Cc1ccc(-c2cc(Cl)ccc2Cl)cc1)C(=O)O)C1CCCN(c2ncnc(NC3CCCCC3)c2F)C1 (some centres unmarked) [Example 2.34]
2 to 10	COc1ccc(S(=O)(=O)N2CCCC(C(=O)N[C@@H](Cc3ccc(-c4ccc(Cl)cc4Cl)cc3)C(=O)O)C2)cc1OC (some centres unmarked) [Example 1.98]
2 to 10	CN1CCN(C(=O)Nc2ccc(C[C@H](NC(=O)C3CCCN(c4ncnc(N5CCc6ccccc6C5)c4F)C3)C(=O)O)cc2)CC1 (some centres unmarked) [Example 5.27]
2 to 10	COC(=O)c1ccccc1S(=O)(=O)N1CCCC(C(=O)N[C@@H](Cc2ccc(-c3ccccc3C)cc2)C(=O)O)C1 (some centres unmarked) [Example 1.86]
2 to 10	COc1ccccc1-c1ccc(C[C@H](NC(=O)C2CCCN(c3ncnc(NC4CCN(Cc5ccccc5)CC4)c3F)C2)C(=O)O)cc1 (some centres unmarked) [Example 5.2]
0.5 to 2	O=C(N[C@@H](Cc1ccc(NC(=O)N2CCc3ccccc3C2)cc1)C(=O)O)C1CCCN(c2ncnc(NCc3ccncc3)c2F)C1 (some centres unmarked) [Example 5.44]
≤ 0.5	O=C(N[C@@H](Cc1ccc(NC(=O)N2CCOCC2)cc1)C(=O)O)C1CCCN(S(=O)(=O)c2ccc3ccccc3c2)C1 (some centres unmarked) [Example 4.30]
2 to 10	O=C(N[C@@H](Cc1ccc(NC(=O)N2CCOCC2)cc1)C(=O)O)C1CCCN(c2ncnc(N3CCN(c4ccccc4)CC3)c2F)C1 (some centres unmarked) [Example 5.12]
0.5 to 2	CN1CCN(C(=O)Nc2ccc(C[C@H](NC(=O)C3CCCN(C(=O)Nc4ccccc4F)C3)C(=O)O)cc2)CC1 (some centres unmarked) [Example 4.57]
0.5 to 2	O=C(N[C@@H](Cc1ccc(NC(=O)N2CCN(c3ccccc3)CC2)cc1)C(=O)O)C1CCCN(c2ncnc(NCC(c3ccccc3)c3ccccc3)c2F)C1 (some centres unmarked) [Example 5.19]
≤ 0.5	COc1ccccc1C(=O)N1CCCC(C(=O)N[C@@H](Cc2ccc(NC(=O)N3CCOCC3)cc2)C(=O)O)C1 (some centres unmarked) [Example 4.22]
2 to 10	CN1CCN(C(=O)Nc2ccc(C[C@H](NC(=O)C3CCCN(c4ncnc(N5CCN(c6ccccc6)CC5)c4F)C3)C(=O)O)cc2)CC1 (some centres unmarked) [Example 5.14]
≤ 0.5	COc1ccc(S(=O)(=O)N2CCCC(C(=O)N[C@@H](Cc3ccc(NC(=O)N4CCOCC4)cc3)C(=O)O)C2)cc1OC (some centres unmarked) [Example 4.34]
2 to 10	O=C(N[C@@H](Cc1ccc(-c2ccc(Cl)cc2Cl)cc1)C(=O)O)C1CCCN(C(=O)OC2CCCC2)C1 (some centres unmarked) [Example 1.48]
≤ 0.5	CN1CCN(C(=O)Nc2ccc(C[C@H](NC(=O)C3CCCN(S(=O)(=O)c4ccc5ccccc5c4)C3)C(=O)O)cc2)CC1 (some centres unmarked) [Example 4.16]
≤ 0.5	O=C(N[C@@H](Cc1ccc(-c2cc(Cl)ccc2Cl)cc1)C(=O)O)C1CCCN(C(=O)OC2CCCC2)C1 (stereo partly drawn) [Example 1.5, (2S)-2-[({1-[(cyclopentyloxy)carbonyl]-3-piperidinyl}carbonyl)amino]-3-(2′,5′-dichloro[1,1′-biphenyl]-4-yl)propanoic acid]
≤ 0.5	O=C(N[C@@H](Cc1ccc(-c2cc(Cl)ccc2Cl)cc1)C(=O)O)C1CCCN(c2ncnc(NCc3ccccn3)c2F)C1 (some centres unmarked) [Example 2.1]
2 to 10	O=C(N[C@H](Cc1ccc(NC(=O)N2CCc3ccccc3C2)cc1)C(=O)O)C1CCCN(C(=O)c2ccc(OC(F)(F)F)cc2)C1 (some centres unmarked) [Example 4.20]
